In assay [1] the target is T1, HPV-16-E6 (recombinant GST-E6 protein) (Human papillomavirus type 16, UniProt P03126).
T1 construct: The full length HPV16 E6 gene was amplified via polymerase chain reaction and cloned in the vector pGeX4T2; made in house; host or cells: E. coli strain AB1899
The assay can be described thus: biochemical. It counts as biochemical. The source says:
Where the chelated metal is zinc, zinc release can be measured as an increase in the fluorescence of the zinc-selective fluorophore TSQ (N-(6-methoxy-8-quinolyl)-p-toluenesulfonamide) (18) in the presence of the protein and the active compound (TSQ assay).
In such an assay, the increase in fluorescence measured can be described as a percentage of the increase in fluorescence observed for a positive control compound which provides 100% zinc release. A suitable positive control compound is H2O2. Preferred compounds which may be useful in the present invention are those which release at least 30% of the chelated zinc as measured by the TSQ assay. Particularly preferred compounds for use in the present invention are those which release at least 40% of the chelated zinc, more preferably at least 50%.
In earlier studies, reduced glutathione (GSH) was required to elute recombinant glutathione sulfhydryl transferase E6 (recombinant (GST-E6)) protein during the purification process. However, the reducing activity of the GSH sulfhydryl groups protected GST-E6 protein from the chemical attack by agents, such as the disulphide based organic compounds of Formula (I) and (II). […] Individual assays were done in the presence of 9 μg GST-E6 protein, corresponding to a concentration of 1 μM GST-E6 protein and 2 μM bound zinc, assuming the presence of two Zn ions per protein.
Release of zinc from HPV-16-E6 was monitored by the change in fluorescence of the zinc-selective fluorophore TSQ (N-6-methoxy-8-quinolyl)-p-toluenesulfonamide), (Molecular Probes, Eugene, Oreg.) by modification of published procedures (25, 26, 27). In a total reaction volume of 200 μl, 9 μg (1 μM) recombinant GST-E6 protein (corresponding to a concentration of 1 μM), bound to glutathione-sepharose beads, were incubated with 10 μM of each compound or 0.6% (170 mM) H2O2 in TSQ-assay buffer (10 mM sodium phosphate buffer pH7.0, 10% glycerol) for 2 hours at room temperature (200 μl total volume in 96-well plates). Immediately after addition of 100 μM TSQ, the increase in fluorescence was measured on a SLT Fluostar (355 nm excitation filter and 460 nm emission filter, Tecan, Salzburg).
Values given are % values of Zinc release. The relative fluorescence units (RFU) were normalized to the amount of zinc released by H2O2 (regarded as 100%). The concentration of compound used was 10 μM for C27–C35, 13 μM for C37–C83, H2O2 was used at 0.3% for C27–C35 and 0.2% for C37–C83.

Assay [2] has as its system HT3, MCF7, HaCat and HeLa-fibroblast hybrid cell line 444. The assay can be described thus: Cell viability (WST1 assay), HPV-negative cells and 444 hybrid. The assay is classed as cell-based, human. As to conditions: treated 3 times in 3 days. From the text:
All cell lines were obtained from the American Type Culture Collection (Manassas, Va.) unless otherwise noted. SiHa (human cervical epithelial tumor line, HPV16-positive), CaSki (human cervical epithelial tumor line, HPV16-positive), HaCat (immortalized human skin epithelial cell line, HPV-negative), HeLa (human cervical epithelial tumor line, HPV18-positive), 444 (hybrid of HeLa and fibroblast, HPV18-positive) obtained from Eric Stanbridge (Universitv of California, Irvine), MCF7 (human mammary epithelial tumor cell line, HPV-negative), HT3 (human cervical epithelial tumor cell line, HPV-negative) was obtained from the German Cancer Research Institute/DKFZ-Heidelberg, and HepG2, (human liver epithelial tumor cell line, HPV-negative), were grown in Dulbecco's modified Eagle medium (DMEM) supplemented with 10% fetal calf serum, 100 U penicillin and 1000 U streptomycin. Cells were allowed to attach to the surface of microwell dishes overnight and subsequently, incubated with medium containing the zinc ejecting compounds at the concentrations (10–100 μM). Viability of the cells was scored by measuring the absorption of the tetrazolium salt WST1 (Roche Molecular Biochemicals, Mannheim, Germany) in an Elisa-plate reader (Tecan, Salzburg, Austria) at a wavelength of 450 nm and a reference wavelength of 630 nm. […]
Background: Tetrazolium dyes change colour on reduction, which living cells bring about.

In assay [3] the test system is PARP cleavage in HeLa cells. Kind of assay: Western blot detection of PARP cleavage, HeLa. The assay is classed as cell-based, human. As to conditions: 100 μM, one day. As for the experimental part:
(§1) 10^6 cells were plated on 10 cm petri-dishes with 10 ml medium and after attachment overnight, treated with 100 μM C16 or 0.5% DMSO for one day. At the time of cell harvest most C16-treated cells were still attached to the plate. Cells were harvested using a rubber policeman and lysed in 10 mM Hepes buffer, pH 7.2, 150 mM NaCl, 0.2% Nonidet-P40 (NP40) and 1 mM PMSF, followed by centrifugation. 20 μg of protein was loaded onto a 12% SDS-polyacrylamide gel, transferred to a nitrocellulose membrane and the membrane blocked with 5% nonfat dry milk in 20 mM Tris-Cl, pH 7.6, 150 mM NaCl, 0.05% Tween-20 overnight at 4° C. The membrane was then probed with primary antibodies against p53 (Santa Cruz Biotechnology, Santa Cruz, Calif.), β-actin (Sigma, St. Louis, Mo.) or PARP (C210, Centre de Research du Chul, Quebec, Canada) and followed by incubation with horseradish peroxidase-conjugated secondary antibody (Pierce, Rockford, Ill.). Finally, the blot was treated with an enhanced chemiluminescent detection substrate (SuperSignal, Pierce) and autoradiographed.
(§2) Increases in P53 expression are known to be associated with programmed cell death (apoptosis) (29), therefore PARP cleavage, a hallmark of apoptosis was examined in C16 treated cells.
For orientation: A western blot detects proteins with antibodies after separation by electrophoresis.

For assay [4], the system named is PARP cleavage in HaCat cells. The assay can be described thus: Western blot detection of PARP cleavage, HaCat. It counts as cell-based, human. As to conditions: 100 μM, one day; HPV-negative HaCat cells (mutant p53). As for the experimental part: as §1, §2

T1 sequence (P03126 whole entry): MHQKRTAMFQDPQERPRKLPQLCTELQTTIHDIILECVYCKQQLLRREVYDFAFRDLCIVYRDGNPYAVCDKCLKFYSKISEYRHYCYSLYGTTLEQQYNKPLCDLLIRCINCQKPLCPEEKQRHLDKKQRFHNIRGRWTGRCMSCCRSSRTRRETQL

Regarding `C1CN(SSN2CCOCC2)CCO1` [Compound C16], the “zinc release in original TSQ assays” value in assay [1] (GSH present at 5–10 mM) is given as “capable of releasing zinc”. Moreover, the activation at 10 µM in assay [1] (read-out: TSQ % (% values of Zinc release)) turned out to be 63.2%. Moreover, the “effect on cell viability” value in assay [2] is listed as “little or no effect”. In addition, the PARP cleavage entry in assay [3] is “PARP cleavage was observed”; in assay [4], “not”.

Values taken from patent US7019000B1, “Method of treating a disease condition caused or exacerbated by an HPV” (Institute of Molecular & Cell Biology, priority 1998, dated 2006).
